Results published in patent US6326492A, “Heterocyclic protease inhibitors” (3-Dimensional Pharmaceuticals, Inc., priority 2000, dated 2001).
Where a name gives a salt, the structure may show the parent alone.

Molecular target: T1, Human α-thrombin (Homo sapiens, UniProt P00734)
T1 construct: Human α-thrombin, was obtained from Enzyme Research Laboratories; purchased Enzyme Research Laboratories (South Bend, Ind.)
Experiment: In vitro inhibition of purified thrombin (Ki determination, p-nitroanilide substrate hydrolysis)
Format: biochemical
Conditions: purified human α-thrombin 0.5 nM, substrate N-succinyl-Ala-Ala-Pro-Arg-p-nitroanilide, 50 mM HEPES, 200 mM NaCl, pH 7.5, 37° C.; read-out: thrombin inhibitory activity
Excerpt: Reagents: All buffer salts were obtained from Sigma Chemical Company (St. Louis, Mo.), and were of the highest purity available. The enzyme substrates, N-benzoyl-Phe-Val-Arg-p-nitroanilide (Sigma B7632), N-benzoyl-Ile-Glu-Gly-Arg-p-nitroanilide hydrochloride (Sigma B2291), N-p-Tosyl-Gly-Pro-Lys-p-nitroanilide (Sigma T6140), N-succinyl-Ala-Ala-Pro-Phe-p-nitroanilide (Sigma S7388) and N-CBZ-Val-Gly-Arg-p-nitroanilide (Sigma C7271) were obtained from Sigma. N-succinyl-Ala-Ala-Pro-Arg-p-nitroanilide (BACHEM L-1720) and N-succinyl-Ala-Ala-Pro-Val-p-nitroanilide (BACHEM L-1770) were obtained from BACHEM (King of Prussia, Pa.). […]
Ki Determinations: All assays are based on the ability of the test compound to inhibit the enzyme catalyzed hydrolysis of a peptide p-nitroanilide substrate. […] In general, substrate concentrations are lower than the experimentally determined value for Km. […]
In a typical Ki determination, into each well of a 96 well plate is pipetted […] of substrate solution, […] of test compound solution, and the plate allowed to thermally equilibrate at 37° C. in a Molecular Devices plate reader for>15 minutes. Reactions were initiated by the addition of a […] aliquot of enzyme and the absorbance increase at 405 nm is recorded for 15 minutes. […] The data are fit to a linear regression, and the value of the slope of the line calculated. […]

Cc1cccc(S(=O)(=O)Nc2ccc(C)n(CC(=O)NC3CCN(C(=N)N)OC3)c2=O)c1 (centres unmarked) [Example 2, 5-[2-(6-Methyl-3-{[(3-methylphenyl)sulfonyl]amino}-2-oxohydropyridyl)acetylamino]-1,2-oxazaperhydroine-2-carboxamidine trifluoroacetate]
Ki: 0.38 nM

Cc1cccc(S(=O)(=O)Nc2ccc(C)n(CC(=O)NCC3CNC(=N)NO3)c2=O)c1 (centres unmarked) [Example 1, N-[(3-Imino(1,2,4-oxadiazaperhydroin-6-yl))methyl]-2-(6methyl-3-{[(3methylphenyl)sulfonyl]amino}-2-oxohydropyridyl)acetamide trifluoroacetate]
Ki: 26 nM
